Results published in patent US8900444B2, “Switchable hydrophilicity solvents and methods of use thereof” (Queen's University at Kingston, priority 2009, dated 2014).
“Also recorded” adds a separate entry of the source.

How the values were obtained:
[1] = Separation of switchable solvent from soybean oil with CO2/carbonated water (Examples 2A, 2C); type: physicochemical
Description: A 4 mL vial was prepared containing 1.0 mL D2O, 0.5 mL BA and 0.5 mL soybean oil. The vial was shaken thoroughly and allowed to settle, showing a 1.0 mL upper layer (soybean oil and BA) and a 1.0 mL lower layer (D2O). ^1H NMR samples (50 μL) were withdrawn from each layer and mixed with methanol-d4 (0.5 mL) containing a dioxane internal standard (51.5 mM). Another sample was withdrawn from the upper layer for ^1H NMR analysis in CDCl3, because soybean oil is not miscible with methanol. The same volume was discarded from the bottom layer to maintain the initial ratio.
CO2 was bubbled through the system for 1.5 h, at which time the top layer appeared to have halved in volume. Using the same system, ^1H NMR analysis was again conducted on both layers, the bottom layer in methanol-d4 and the top layer in CDCl3.
A 1.0 mL portion of the bottom layer was withdrawn and transferred to a new 4.0 mL vial. A magnetic stirrer was added and the vial was stirred at 80° C. for 1 h. Samples were withdrawn from both layers for ^1H NMR analysis in methanol-d4 with reference to the dioxane internal standard.
The switching behavior of BA in the presence of soybean oil was studied qualitatively and by ^1H NMR spectroscopy as shown in FIG. 11. The top spectrum is that of soy oil. The middle spectrum is that of the upper (organic) phase after the mixing of the BA, soy oil and D2O. This upper phase comprises soy oil and BA. The bottom spectrum is that of the upper (organic) phase after the addition of the CO2 trigger and comprises predominantly soy oil and any residual solvent.
The most informative ^1H NMR spectra in this experiment were those showing the separation of the soy oil and BA. Based on the integration of the peak corresponding to BA at 3.17 ppm in these spectra, 96% of the amidine was removed from the upper soybean oil layer after switching to its hydrophilic BAB form. Other spectra (not shown), collected in methanol-d4 with a dioxane internal standard, confirmed the switching behavior presented in Example 1 above, showing 11% retention of BA in the aqueous phase after heating.
It was possible to remove a high percentage of N1,N1,N4,N4-tetraethylbutane-1,4-diamine from the soybean oil be mixing with carbonated water. The percentage removal was 98.65%. In contrast, 96% of BA was removed from the soybean oil.

[2] = Regeneration of BA from aqueous BAB using air (Example 1C); type: physicochemical
Description: Switching behavior was studied for an aqueous solution of BAB. A glass vial (4 mL) was prepared, containing distilled water (1.0 mL) and BA (1.0 mL) as a two-phase mixture. CO2 was bubbled through the vial for roughly 30 minutes, until the top layer had disappeared showing that a single-phase solution of BAB in water had been formed.
Air was then bubbled through the same glass vial with the single-phase solution for approximately 5 hours at room temperature to displace CO2 from the solution. The formation of a second layer (hydrophobic BA) was noted.

Compound: CCCCN=C(CCCC)N(CCCC)CCCC [BA, N,N,N′-tributylpentanamidine]
- solvent removed from soybean oil after switching to hydrophilic form ([1]; CO2 / carbonated water): 96%
- miscibility with soybean oil ([1]; neutral hydrophobic form): miscible with soy oil; also recorded: miscible with soybean oil
- retention of BA in the aqueous phase after heating ([1]; soybean oil experiment, 80 °C, 1 h, dioxane internal standard): 11%
- time of CO2 bubbling until top layer disappeared ([2]; 1.0 mL water + 1.0 mL BA): roughly 30 minutes
- time of air bubbling after which second layer was noted ([2]; room temperature): approximately 5 hours
